Reference: paper PMC4832229 (Scientific Reports, 2016)
Read-outs that look alike come from different tables or passages of the source. One block for each molecule: values may come before it.

Experiments:
ROS in C6 cells = test: ROS assay (CellROX) in C6 cells; format: cell-based, rat; settings: for effect on CYM-5478-mediated attenuation of cisplatin-induced ROS: cisplatin + CYM-5478; for effect on cisplatin-induced ROS: co-administered with cisplatin, CYM-5478 10 μM
Description: Cells were plated in clear-bottom, black-walled 96-well plates at ~50% confluence, incubated overnight, then treated overnight with cisplatin in the presence of the indicated compounds. All conditions were vehicle-controlled (0.1% DMSO). […] Cells were photographed with a 20X objective lens, 3 fields per well, 3 wells per condition. Quantification was performed using ImageJ software, but dividing the total integrated density of CellROX® labelling by the number of cells per Hoechst staining.

[1] = system: MDA-MB-231 breast cancer cells; test: Cell rounding assay in MDA-MB-231 cells (endogenous S1P2); format: cell-based; settings: for cell rounding response: serum-starved MDA-MB-231 cells, S1P 1 μM
Description: Cell rounding was performed essentially as described. […] After 15 min, the cells were fixed and stained with fluorescein phalloidin and DAPI for cell morphology. The number of cells with retracted neurites and the number of total cells were counted in three separate fields for each sample, and the percentage of cells with retracted neurites was calculated.

S1P3 = molecular target: T1, S1P3 (Homo sapiens, UniProt Q99500); test: TGFα-shedding assay, S1P3; format: cell-based; settings: for EC50: HEK293 cells, ligand 1 hour
T1 construct: expressed in transfected cells; host or cells: HEK293
Description: (§1) The TGFα-shedding assay was performed essentially as described. Briefly, HEK293 cells were co-transfected with the indicated receptor expression construct and TGFα-alkaline phosphatase using Lipofectamine 2000 reagent (cat #11668019, Thermo Fisher), collected by trypsinization, washed with phosphate-buffered saline, and seeded into 96-well plates in Hank’s Balanced Saline Solution (HBSS). To improve assay sensitivity, S1P1 and S1P2 cells were co-transfected with Gαq/i1 chimeric protein, and S1P4 and S1P5 were co-transfected with Gαq/16, as previously described. Cells were stimulated with ligand for 1 hour, then alkaline phosphatase activity was detected in cells and in the supernatant. Receptor activity (% shedding) was defined as alkaline phosphatase activity of the supernatant/total alkaline phosphatase activity (cells + supernatant). Data processing and statistical analyses were performed with GraphPad Prism 6.

S1P2 [2] = molecular target: T2, S1P2 (Homo sapiens, UniProt O95136); test: TGFα-shedding assay, S1P2; format: cell-based
T2 construct: expressed in transfected cells; host or cells: HEK293
Description: as §1

S1P1 = molecular target: T3, S1P1 (Homo sapiens, UniProt P21453); test: TGFα-shedding assay, S1P1; format: cell-based; settings: for EC50: HEK293 cells, ligand 1 hour
T3 construct: expressed in transfected cells; host or cells: HEK293
Description: as §1

[3] = system: NOX3 complex (Nox3, NoxO1, NoxA1); test: NOX3 activity assay (luminol) in transfected HEK293 cells; format: cell-based; settings: HEK293, S1P 1 μM, 15 minutes
Description: NOX3 activity was determined as previously described. […] Indicated values were taken 15 minutes following stimulation.

S1P2-EGFP = molecular target: T4, S1P2-EGFP (Homo sapiens, UniProt O95136); test: Receptor internalization assay, S1P2-EGFP; format: cell-based; settings: 1 μM ligand
T4 construct: expressed in transfected cells

S1P1-EGFP = molecular target: T5, S1P1-EGFP (Homo sapiens, UniProt P21453); test: Receptor internalization assay, S1P1-EGFP; format: cell-based; settings: 1 μM ligand
T5 construct: expressed in transfected cells

S1P5 = molecular target: T6, S1P5 (Homo sapiens, UniProt Q9H228); test: TGFα-shedding assay, S1P5; format: cell-based
T6 construct: expressed in transfected cells; host or cells: HEK293
Description: as §1

S1P4 = molecular target: T7, S1P4 (Homo sapiens, UniProt O95977); test: TGFα-shedding assay, S1P4; format: cell-based; settings: for EC50: HEK293 cells, ligand 1 hour
T7 construct: expressed in transfected cells; host or cells: HEK293
T7 sequence (O95977 1-384): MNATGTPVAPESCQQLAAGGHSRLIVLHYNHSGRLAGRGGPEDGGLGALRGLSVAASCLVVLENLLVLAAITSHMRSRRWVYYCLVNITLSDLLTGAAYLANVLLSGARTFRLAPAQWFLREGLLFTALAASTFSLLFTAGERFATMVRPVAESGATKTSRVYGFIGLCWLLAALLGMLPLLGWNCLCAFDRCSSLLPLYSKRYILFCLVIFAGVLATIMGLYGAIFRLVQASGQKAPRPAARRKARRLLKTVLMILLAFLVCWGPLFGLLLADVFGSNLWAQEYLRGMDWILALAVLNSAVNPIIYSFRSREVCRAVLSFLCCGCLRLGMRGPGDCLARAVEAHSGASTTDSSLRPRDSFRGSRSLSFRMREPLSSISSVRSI
Description: as §1

S1P3-EGFP = molecular target: T8, S1P3-EGFP (Homo sapiens, UniProt Q99500); test: Receptor internalization assay, S1P3-EGFP; format: cell-based; settings: 1 μM ligand
T8 construct: expressed in transfected cells

S1P2 [4] = molecular target: T2, S1P2; settings: cited from earlier work
C6 cells = test: Cell death assay (propidium iodide exclusion) in C6 cells; format: cell-based, rat
Description: Cell death was evaluated by propidium iodide exclusion assay. Cells were plated in 96-well plates at ~50% confluence, incubated overnight, then treated with cisplatin (67 μM) for 24 hours in the presence of vehicle or 10 μM CYM-5478. Cell were treated with Hoechst 33342 (1 mg/ml) and propidium iodide (0.3 mg/ml) for 20 minutes, washed with phosphate-buffered saline, then rapidly photographed with a Cytation 3 automated imager (Biotek Instruments, Inc.). % cell death reflects a ratio of propidium iodide-positive and Hoechst 33342-positive cells.

[5] = system: caspase 3/7 activity in C6 cells; test: Caspase-Glo 3/7 assay in C6 cells; format: cell-based, rat
Description: Cells were plated in clear-bottom, black-walled 96-well plates at ~50% confluence, incubated overnight, then treated overnight with cisplatin in the presence of vehicle or 10 μM CYM-5478. Caspase activation was evaluated by Caspase-Glo 3/7 Assay System (Promega Corporation) per manufacturer’s instructions.

[6] = system: other S1P receptor subtypes; test: TGFα-shedding assay, other S1P receptor subtypes (summary statement); format: cell-based; settings: subtypes other than S1P2
Description: as §1

C6 rat glioma cells = test: Viability assay (MTT) in C6 cells; format: cell-based; settings: for EC50: vehicle
Description: Cell viability was determined by 3-(4,5-dimethylthiazol-2-yl)-2,5-diphenyltetrazolium bromide (MTT) assay as described. Briefly, C6 cells were seeded into 96-well plates at 20,000 cells/well, incubated overnight, serum-starved for 4 h, and treated for 72 hours with cisplatin in the presence of CYM-5478 or vehicle.

T3 sequence (P21453 whole entry, species assumed): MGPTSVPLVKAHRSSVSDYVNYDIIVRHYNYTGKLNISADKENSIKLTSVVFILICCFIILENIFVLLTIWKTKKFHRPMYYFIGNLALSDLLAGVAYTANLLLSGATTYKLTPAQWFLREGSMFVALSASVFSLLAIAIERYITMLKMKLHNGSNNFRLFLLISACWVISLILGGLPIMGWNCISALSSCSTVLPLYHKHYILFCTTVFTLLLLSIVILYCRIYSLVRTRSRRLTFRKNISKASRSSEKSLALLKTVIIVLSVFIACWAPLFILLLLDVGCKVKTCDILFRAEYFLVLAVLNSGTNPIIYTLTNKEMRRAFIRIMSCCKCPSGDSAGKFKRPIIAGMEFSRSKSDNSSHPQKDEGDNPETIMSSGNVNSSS
T2 sequence (O95136 whole entry, species assumed): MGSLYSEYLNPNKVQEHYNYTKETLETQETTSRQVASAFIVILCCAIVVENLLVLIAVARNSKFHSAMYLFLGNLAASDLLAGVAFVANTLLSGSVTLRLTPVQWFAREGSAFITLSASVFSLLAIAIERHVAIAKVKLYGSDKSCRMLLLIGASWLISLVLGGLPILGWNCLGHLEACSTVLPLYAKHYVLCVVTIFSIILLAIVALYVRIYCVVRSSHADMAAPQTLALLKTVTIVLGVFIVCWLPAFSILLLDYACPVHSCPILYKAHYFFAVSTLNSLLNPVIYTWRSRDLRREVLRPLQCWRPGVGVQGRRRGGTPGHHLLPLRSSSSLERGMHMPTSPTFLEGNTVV
T1 sequence (Q99500 whole entry, species assumed): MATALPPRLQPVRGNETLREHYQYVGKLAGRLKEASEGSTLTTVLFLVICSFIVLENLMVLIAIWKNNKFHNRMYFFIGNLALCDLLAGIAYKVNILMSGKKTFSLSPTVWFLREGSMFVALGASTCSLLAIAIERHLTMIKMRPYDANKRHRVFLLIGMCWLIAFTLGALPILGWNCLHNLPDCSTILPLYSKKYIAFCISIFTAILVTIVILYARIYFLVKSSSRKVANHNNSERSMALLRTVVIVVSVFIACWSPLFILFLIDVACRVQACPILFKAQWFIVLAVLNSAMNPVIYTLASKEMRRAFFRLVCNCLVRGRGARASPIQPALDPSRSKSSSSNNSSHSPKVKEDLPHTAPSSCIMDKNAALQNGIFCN
T6 sequence (Q9H228 whole entry, species assumed): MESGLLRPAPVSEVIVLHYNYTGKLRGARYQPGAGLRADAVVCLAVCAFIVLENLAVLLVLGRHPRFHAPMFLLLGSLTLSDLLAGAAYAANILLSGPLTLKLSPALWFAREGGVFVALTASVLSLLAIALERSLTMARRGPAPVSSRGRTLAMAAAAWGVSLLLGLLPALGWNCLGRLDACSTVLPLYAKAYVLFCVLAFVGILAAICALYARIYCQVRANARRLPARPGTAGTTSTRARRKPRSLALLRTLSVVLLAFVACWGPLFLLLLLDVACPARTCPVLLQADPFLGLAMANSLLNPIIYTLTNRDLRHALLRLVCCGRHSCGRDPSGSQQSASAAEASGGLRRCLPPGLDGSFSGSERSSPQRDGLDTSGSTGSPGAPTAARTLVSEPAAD
T4 sequence (O95136 whole entry): as the sequence (O95136 whole entry, species assumed) above
T5 sequence (P21453 whole entry): as the sequence (P21453 whole entry, species assumed) above
T8 sequence (Q99500 whole entry): as the sequence (Q99500 whole entry, species assumed) above

Molecule: JTE-013
effect on CYM-5478-mediated attenuation of cisplatin-induced ROS (ROS in C6 cells): complete attenuation of CYM-5478 activity | effect on cisplatin-induced ROS (ROS in C6 cells): no effect on cisplatin-induced ROS | effect of pre-treatment on CYM-5478-induced cell rounding ([1]; pre-treatment 15 minutes before CYM-5478): similarly abrogated | effect of pre-treatment on S1P-induced cell rounding ([1]; pre-treatment 15 minutes before S1P (1 μM)): completely abrogated

Molecule: c1ccc2c(c1)[I+]c1ccccc1-2 [DPI, diphenyleneiodonium]
effect on cisplatin-induced ROS (ROS in C6 cells): phenocopied

Emax (S1P3): 100% | EC50 (S1P3): 0.0554 µM | Emax (S1P2 [2]): 100% | EC50 (S1P1): 0.115 µM | Emax (S1P5): 100% | Emax (S1P4): 100% | EC50 (S1P4): 0.175 µM
Molecule: CCCCCCCCCCCCC/C=C/[C@@H](O)[C@@H](N)COP(=O)(O)O [S1P, sphingosine 1-phosphate]
S1P-dependent reduction of NOX3 ROS, co-transfected S1P1 [3]: not observed | S1P-dependent reduction of NOX3 ROS, co-transfected S1P3 [3]: not observed | effect on NOX3 ROS generation, co-transfected S1P2 [3]: further attenuated | internalization of S1P2-EGFP (S1P2-EGFP): largely internalized to cytoplasmic vesicles | cell rounding response [1]: pronounced cytoskeletal rearrangement characterized by process retraction and cell rounding | internalization of S1P1-EGFP (S1P1-EGFP): largely internalized to cytoplasmic vesicles | internalization of S1P3-EGFP (S1P3-EGFP): largely internalized to cytoplasmic vesicles

EC50 (S1P3): 1.95 µM | S1P3 Emax (S1P3; relative to S1P): 20.8% | EC50 (S1P2 [2]; HEK293 cells, ligand 1 hour): 0.119 µM | S1P2 Emax (S1P2 [2]; relative to S1P): 99.5% | EC50 (S1P1): 1.69 µM | S1P1 Emax (S1P1; relative to S1P): 24.2% | internalization of S1P2-EGFP (S1P2-EGFP): induced the internalization of S1P2-EGFP | EC50 (S1P5; HEK293 cells, ligand 1 hour): > 10 µM | EC50 (S1P4): > 10 µM | efficacy against the other S1P receptor subtypes [6]: less than 25% | lower potency against the other S1P receptor subtypes vs S1P2 [6]: 10 fold | increase in EC50 of cisplatin conferred by co-administration (C6 rat glioma cells; C6 cells, 10 μM CYM-5478): 3 fold | effect on EC50 of cisplatin in the presence of 1 mM N-acetylcysteine (C6 rat glioma cells; C6 cells, vs vehicle-treated): no significant difference
Molecule: Cc1cc(C(=O)Cn2cc(C(F)(F)F)ccc2=O)c(C)n1Cc1ccccc1 [CYM-5478]
EC50 (S1P2 [4]; Scripps Research Institute Molecular Screening Center HTS, ref http://pubchem.ncbi.nlm.nih.gov/assay/assay.cgi?aid=872, read-out: EC50 in the original screen): 0.723 µM | EC50 (S1P2 [4]; read-out: EC50 in subsequent validation studies): 0.78 µM | effect on cisplatin-induced increase in propidium iodide-positive cells (C6 cells; co-administration of 10 μM CYM-5478 with cisplatin 67 μM, 24 hours): attenuated | change in propidium iodide-positive cells, treatment alone (C6 cells; without cisplatin): no significant change | effect on cisplatin-induced ROS (ROS in C6 cells): significantly attenuated | cell rounding response [1]: identical rounding response | effect on cisplatin-induced caspase 3/7 activity ([5]; co-administration of 10 μM CYM-5478): markedly attenuated | increase in viability in the presence of 10% fetal bovine serum (C6 rat glioma cells; C6 cells, 10% fetal bovine serum (data not shown)): absent | protection of C6 cells from exogenously administered ROS (hydrogen peroxide) (C6 rat glioma cells; presence vs absence of CYM-5478): equally sensitive | concentrations giving statistically significant, dose dependent increase in viability (C6 rat glioma cells; serum-starved C6 cells, MTT): above 100 nM

Molecule: N.N.[Cl][Pt][Cl] [Cisplatin, cis-Diammineplatinum(II) dichloride]
increase in propidium iodide-positive cells (C6 cells; cisplatin 67 μM, 24 hours): > 3 fold | ROS accumulation (CellROX fluorescence) (ROS in C6 cells; cisplatin 20 μM, 24 hours): increase in ROS | caspase 3/7 activity ([5]; overnight): significant increase in caspase 3/7 activity | EC50 (C6 rat glioma cells; C6 cells, 72 hours, MTT, read-out: EC50 of cisplatin-mediated reduction in viability, + vehicle): 1.34 µM

EC50 (C6 rat glioma cells; C6 cells, read-out: EC50 of hydrogen peroxide, + vehicle): 1.86 µM
Molecule: OO [H2O2, hydrogen peroxide]

Molecule: CCN(CC)CCCC(C)Nc1nc(C)cc(Nc2ccc3nc(C)cc(N)c3c2)n1 (centres unmarked) [NSC23766]
effect on cisplatin-induced ROS (ROS in C6 cells): phenocopied

Molecule: C[C@@H](N)[C@H]1CC[C@H](C(=O)Nc2ccncc2)CC1 [Y-27632]
effect on CYM-5478-mediated attenuation of cisplatin-induced ROS (ROS in C6 cells): complete attenuation of CYM-5478 activity | effect on cisplatin-induced ROS (ROS in C6 cells): no effect on cisplatin-induced ROS
